Our source for the EC50 values is patent US20130210809A1, “NOVEL 2-AMINO-4-PYRAZOLYL-THIAZOLE DERIVATIVES AND THEIR USE AS ALLOSTERIC MODULATORS OF METABOTROPIC GLUTAMATE RECEPTORS” (priority 2010, published 2013).

The target of this test is T1, recombinant human mGluR4a receptors (Homo sapiens, UniProt Q14833).
T1 construct: expressed in transfected cells
T1 sequence (Q14833 33-912): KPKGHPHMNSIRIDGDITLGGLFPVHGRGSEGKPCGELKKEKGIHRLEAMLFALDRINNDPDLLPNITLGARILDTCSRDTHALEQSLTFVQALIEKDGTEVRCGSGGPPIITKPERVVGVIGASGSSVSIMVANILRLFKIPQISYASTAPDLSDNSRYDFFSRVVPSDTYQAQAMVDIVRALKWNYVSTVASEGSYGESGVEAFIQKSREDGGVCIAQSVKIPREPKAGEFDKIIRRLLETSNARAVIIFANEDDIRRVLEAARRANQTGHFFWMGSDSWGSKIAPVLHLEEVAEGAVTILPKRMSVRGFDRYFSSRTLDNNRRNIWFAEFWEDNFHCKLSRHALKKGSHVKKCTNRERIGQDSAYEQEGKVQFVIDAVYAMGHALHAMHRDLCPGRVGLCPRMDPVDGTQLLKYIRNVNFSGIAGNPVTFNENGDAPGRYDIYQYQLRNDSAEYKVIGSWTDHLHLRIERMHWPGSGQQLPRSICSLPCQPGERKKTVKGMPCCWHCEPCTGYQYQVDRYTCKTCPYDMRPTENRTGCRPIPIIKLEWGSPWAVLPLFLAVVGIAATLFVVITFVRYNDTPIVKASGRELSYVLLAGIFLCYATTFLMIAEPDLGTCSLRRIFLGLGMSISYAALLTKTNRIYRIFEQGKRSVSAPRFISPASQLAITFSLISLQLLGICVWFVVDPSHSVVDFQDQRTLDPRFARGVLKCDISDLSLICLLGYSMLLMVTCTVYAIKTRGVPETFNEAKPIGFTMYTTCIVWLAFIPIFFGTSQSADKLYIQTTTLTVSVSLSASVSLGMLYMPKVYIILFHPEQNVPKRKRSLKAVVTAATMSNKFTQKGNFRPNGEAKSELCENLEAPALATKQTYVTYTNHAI
Kind of test: mGluR4 assay on HEK-expressing human mGluR4 (fluorescent cell based Ca2+ mobilization assay, FLIPR). To be noted: HEK-293 cells expressing hmGluR4; enhancement of EC25 glutamate response; mean of at least three independent experiments in duplicate; read-out: Ca^2+ Flux (mean EC50). The source says:
mGluR4 Assay on HEK-Expressing Human mGluR4
The compounds of the present invention are positive allosteric modulators of mGluR4 receptor. Their activity was examined on recombinant human mGluR4a receptors by detecting changes in intracellular Ca^2+ concentration, using the fluorescent Ca^2+-sensitive dye Fluo4-(AM) and a Fluorometric Imaging Plate Reader (FLIPR, Molecular Devices, Sunnyvale, Calif.).
The cDNA encoding the human metabotropic glutamate receptor (hmGluR4), (accession number NM_000841.1, NCBI Nucleotide database browser), was subcloned into an expression vector containing also the Hygromycin resistance gene. In parallel, the cDNA encoding a G protein allowing redirection of the activation signal to intracellular calcium flux was subcloned into a different expression vector containing also the Puromycin resistance gene. Transfection of both these vectors into HEK293 cells with PolyFect reagent (Qiagen) according to supplier's protocol, and hygromycin and puromycin treatment allowed selection of antibiotic resistant cells which had integrated stably one or more copies of the plasmids. Positive cellular clones expressing hmGluR4 were identified in a functional assay measuring changes in calcium flux in response to glutamate or selective known mGluR4 orthosteric agonists and antagonists. HEK-293 cells expressing hmGluR4 were maintained in media containing DMEM, dialyzed Fetal Calf Serum (10%), Glutamax™ (2 mM), Penicillin (100 units/mL), Streptomycin (100 μg/mL), Geneticin (100 μg/mL) and Hygromycin-B (40 μg/mL) and Puromycin (1 μg/mL) at 37° C./5% CO2.
Human mGluR4 HEK-293 cells were plated out 24 hours prior to FLIPR^384 assay in black-walled, clear-bottomed, poly-L-ornithine-coated 384-well plates at a density of 25,000 cells/well in a glutamine/glutamate free DMEM medium containing foetal bovine serum (10%), penicillin (100 units/mL) and streptomycin (100 μg/mL) at 37° C./5% CO2.
On the day of the assay, the medium was aspirated and the cells were loaded with a 3 μM solution of Fluo4-AM (LuBioScience, Lucerne, Switzerland) in 0.03% pluronic acid. After 1 hour at 37° C./5% CO2, the non incorporated dye was removed by washing cell plate with the assay buffer and the cells were left in the dark at it for six hours before testing. All assays were performed in a pH 7.4 buffered-solution containing 20 mM HEPES, 143 mM NaCl, 6 mM KCl, 1 mM MgSO4, 1 mM CaCl2, 0.125 mM sulfapyrazone and 0.1% glucose.
After 10 s of basal fluorescence recording, various concentrations of the compounds of the invention were added to the cells. Changes in fluorescence levels were first monitored for 180 s in order to detect any agonist activity of the compounds. Then the cells were stimulated by an EC25 glutamate concentration for an additional 110 s in order to measure enhancing activities of the compounds of the invention. EC25 glutamate concentration is the concentration giving 25% of the maximal glutamate response.
The concentration-response curves of representative compounds of the present invention were generated using the Prism GraphPad software (Graph Pad Inc, San Diego, USA). The curves were fitted to a four-parameter logistic equation:
(Y=Bottom+(Top−Bottom)/(1+10̂((Log EC50-X)*Hill Slope)
allowing the determination of EC50 values.
The Table 3 below represents the mean EC50 obtained from at least three independent experiments of selected molecules performed in duplicate.
As for “3-(3-(2-(Pyrimidin-2-ylamino)thiazol-4-yl)-1H-pyrazol-4-yl)benzonitrile [Compound 1-43]”, the EC50 is below 0.1 µM.

Turning to `Cc1ccnc(Nc2nc(-c3c[nH]nc3C(F)F)cs2)n1` [Compound 1-1, 4-(3-(Difluoromethyl)-1H-pyrazol-4-yl)-N-(4-methylpyrimidin-2-yl)thiazol-2-amine], the EC50 is below 0.1 µM.

As for `Cc1ccnc(Nc2nc(-c3c[nH]nc3-c3cccc(N4CCS(=O)(=O)CC4)c3)cs2)n1` [Compound 1-2, N-(4-Methylpyrimidin-2-yl)-4-(3-(3-(1,1-dioxido-4-thiomorpholinyl)phenyl)-1H-pyrazol-4-yl)thiazol-2-amine], the concentration giving a half-maximal response (EC50) lay within 1 to 10 µM.

With `Cc1ccnc(Nc2nc(-c3c[nH]nc3-c3ccccc3F)cs2)n1` [Compound 1-3, 4-(3-(2-Fluorophenyl)-1H-pyrazol-4-yl)-N-(4-methylpyrimidin-2-yl)thiazol-2-amine], the EC50 is below 0.1 µM.

Take `Cc1ccnc(Nc2nc(-c3c[nH]nc3-c3cccc(C#N)c3)cs2)n1` [Compound 1-4, 3-(4-(2-(4-Methylpyrimidin-2-ylamino)thiazol-4-yl)-1H-pyrazol-3-yl)benzonitrile]: the EC50 was below 0.1 µM.

`Cc1ccnc(Nc2nc(-c3c[nH]nc3-c3ccc(C(O)C(F)(F)F)cc3)cs2)n1` (stereo not drawn) [Compound 1-6, 2,2,2-Trifluoro-1-(4-(4-(2-(4-methylpyrimidin-2-ylamino)thiazol-4-yl)-1H-pyrazol-3-yl)phenyl)ethanol]: the EC50 is 1 to 10 µM.

As to `Cc1ccnc(Nc2nc(-c3c[nH]nc3-c3cccc4c3CNC4=O)cs2)n1` [Compound 1-7, 4-(4-(2-(4-Methylpyrimidin-2-ylamino)thiazol-4-yl)-1H-pyrazol-3-yl)isoindolin-1-one], the EC50 was 1 to 10 µM.

Turning to `Cc1ccnc(Nc2nc(-c3c[nH]nc3-c3cnn4c3CCC4)cs2)n1` [Compound 1-8, 4-(3-(5,6-Dihydro-4H-pyrrolo[1,2-b]pyrazol-3-yl)-1H-pyrazol-4-yl)-N-(4-methylpyrimidin-2-yl)thiazol-2-amine], the EC50 fell in the range of 1 to 10 µM.

Regarding `Cc1ccnc(Nc2nc(-c3c[nH]nc3-c3cccc(CN4CCOCC4)c3)cs2)n1` [Compound 1-9, N-(4-Methylpyrimidin-2-yl)-4-(3-(3-(morpholinomethyl)phenyl)-1H-pyrazol-4-yl)thiazol-2-amine], the EC50 lay within 1 to 10 µM.

As for `Cc1ccnc(Nc2nc(-c3c[nH]nc3-c3cncc(Cl)c3)cs2)n1` [Compound 1-10, 4-(3-(5-Chloropyridin-3-yl)-1H-pyrazol-4-yl)-N-(4-methylpyrimidin-2-yl)thiazol-2-amine], the EC50 was in the range of 1 to 10 µM.

As for `COc1ccccc1-c1n[nH]cc1-c1csc(Nc2nccc(C)n2)n1` [Compound 1-11, 4-(3-(2-Methoxyphenyl)-1H-pyrazol-4-yl)-N-(4-methylpyrimidin-2-yl)thiazol-2-amine], the EC50 is 1 to 10 µM.

With `Cc1cccc(-c2n[nH]cc2-c2csc(Nc3nccc(C)n3)n2)c1` [Compound 1-12, N-(4-Methylpyrimidin-2-yl)-4-(3-m-tolyl-1H-pyrazol-4-yl)thiazol-2-amine], the EC50 lay in the range of 1 to 10 µM.

On to `c1ccc(Nc2nc(-c3c[nH]nc3N3CCOCC3)cs2)nc1` [Compound 1-13, 4-(3-Morpholino-1H-pyrazol-4-yl)-N-(pyridin-2-yl)thiazol-2-amine], for which the concentration giving a half-maximal response (EC50) lay in the range of 1 to 10 µM.

`Cc1ccnc(Nc2nc(-c3c[nH]nc3-c3cncc(C(C)(C)O)c3)cs2)n1` [Compound 1-14, 2-(5-(4-(2-(4-Methylpyrimidin-2-ylamino)thiazol-4-yl)-1H-pyrazol-3-yl)pyridin-3-yl)propan-2-ol]: the EC50 was 1 to 10 µM.

For `Cc1ccnc(Nc2nc(-c3c[nH]nc3-c3cccc(CCCO)c3)cs2)n1` [Compound 1-15, 3-(3-(4-(2-(4-Methylpyrimidin-2-ylamino)thiazol-4-yl)-1H-pyrazol-3-yl)phenyl)propan-1-ol], the EC50 lay within 0.1 to 1 µM.

Consider `Cc1ccnc(Nc2nc(-c3c[nH]nc3-c3ccc(Cl)cc3)cs2)n1` [Compound 1-16, 4-(3-(4-Chlorophenyl)-1H-pyrazol-4-yl)-N-(4-methylpyrimidin-2-yl)thiazol-2-amine], for which the EC50 is 0.1 to 1 µM.

For the compound `Cc1ccnc(Nc2nc(-c3c[nH]nc3-c3ccc(C4CC4)cc3)cs2)n1` [Compound 1-17, 4-(3-(4-Cyclopropylphenyl)-1H-pyrazol-4-yl)-N-(4-methylpyrimidin-2-yl)thiazol-2-amine], the EC50 was 1 to 10 µM.

With `Cc1ccnc(Nc2nc(-c3c[nH]nc3-c3ccncc3)cs2)n1` [Compound 1-18, N-(4-Methylpyrimidin-2-yl)-4-(3-(pyridin-4-yl)-1H-pyrazol-4-yl)thiazol-2-amine], the EC50 was in the range of 1 to 10 µM.

In the case of `Cc1ccnc(Nc2nc(-c3c[nH]nc3-c3ccccc3C)cs2)n1` [Compound 1-19, N-(4-Methylpyrimidin-2-yl)-4-(3-o-tolyl-1H-pyrazol-4-yl)thiazol-2-amine], the EC50 lay within 1 to 10 µM.

In the case of `Cc1ccnc(Nc2nc(-c3c[nH]nc3-c3ccccc3OC(F)(F)F)cs2)n1` [Compound 1-20, N-(4-Methylpyrimidin-2-yl)-4-(3-(2-(trifluoromethoxy)phenyl)-1H-pyrazol-4-yl)thiazol-2-amine], the EC50 was 1 to 10 µM.

`Cc1ccnc(Nc2nc(-c3c[nH]nc3-c3ccccc3Cl)cs2)n1` [Compound 1-21, 4-(3-(2-Chlorophenyl)-1H-pyrazol-4-yl)-N-(4-methylpyrimidin-2-yl)thiazol-2-amine]: the EC50 was 0.1 to 1 µM.

Regarding `Cc1ccnc(Nc2nc(-c3c[nH]nc3-c3cccc(C(N)=O)c3)cs2)n1` [Compound 1-22, 3-(4-(2-(4-Methylpyrimidin-2-ylamino)thiazol-4-yl)-1H-pyrazol-3-yl)benzamide], the EC50 lay within 1 to 10 µM.

As to `CCOc1ccccc1-c1n[nH]cc1-c1csc(Nc2nccc(C)n2)n1` [Compound 1-23, 4-(3-(2-Ethoxyphenyl)-1H-pyrazol-4-yl)-N-(4-methylpyrimidin-2-yl)thiazol-2-amine], the EC50 was 1 to 10 µM.

In the case of `Cc1ccnc(Nc2nc(-c3c[nH]nc3-c3ccc(F)cc3F)cs2)n1` [Compound 1-24, 4-(3-(2,4-Difluorophenyl)-1H-pyrazol-4-yl)-N-(4-methylpyrimidin-2-yl)thiazol-2-amine], the EC50 fell in the range of 1 to 10 µM.

For the compound `Cc1ccnc(Nc2nc(-c3cn[nH]c3COC3CCC3)cs2)n1` [Compound 1-28, 4-(5-(Cyclobutoxymethyl)-1H-pyrazol-4-yl)-N-(4-methylpyrimidin-2-yl)thiazol-2-amine], the EC50 fell in the range of 0.1 to 1 µM.

Take `COC(C)c1[nH]ncc1-c1csc(Nc2nccc(C)n2)n1` (stereo not drawn) [Compound 1-29, 4-(5-(1-Methoxyethyl)-1H-pyrazol-4-yl)-N-(4-methylpyrimidin-2-yl)thiazol-2-amine]: the EC50 was 0.1 to 1 µM.

Consider `COc1ccc(F)cc1-c1n[nH]cc1-c1csc(Nc2ncccn2)n1` [Compound 1-31, 4-(3-(5-Fluoro-2-methoxyphenyl)-1H-pyrazol-4-yl)-N-(pyrimidin-2-yl)thiazol-2-amine], for which the EC50 was below 0.1 µM.

Turning to `CNC(=O)c1[nH]ncc1-c1csc(Nc2nccc(C)n2)n1` [Compound 1-32, N-Methyl-4-(2-(4-methylpyrimidin-2-ylamino)thiazol-4-yl)-1H-pyrazole-5-carboxamide], the EC50 was in the range of 1 to 10 µM.

For `CC(=O)N1CCC=C(c2n[nH]cc2-c2csc(Nc3nccc(C)n3)n2)C1` [Compound 1-33, 1-(3-(4-(2-(4-Methylpyrimidin-2-ylamino)thiazol-4-yl)-1H-pyrazol-3-yl)-5,6-dihydropyridin-1(2H)-yl)ethanone], the EC50 lay in the range of 1 to 10 µM.

For the compound `Cc1ccnc(Nc2nc(-c3cn[nH]c3-c3cc(C#N)ccc3F)cs2)n1` [Compound 1-34, 4-Fluoro-3-(4-(2-(4-methylpyrimidin-2-ylamino)thiazol-4-yl)-1H-pyrazol-5-yl)benzonitrile], the EC50 was 0.1 to 1 µM.
